“Also recorded” adds a separate entry of the source.
What was measured:
MCF7 cells [1] = assay: FACS analysis of internalization of FITC-labeled peptides; format: cell-based, human
Description: For FACS analysis, MCF7 cells (ATCC number HTB-22) were detached by 15 min incubation in accutase (an enzyme solution having proteolytic and collagenolytic activities; commercially available from various suppliers). After washing in FACS buffer (PBS containing 5% FCS), the cells were seeded in a 96 well, rounded bottom multi-well plate (Cat. No. 3799, Corning Inc., Corning, N.Y. USA) in a final density of 3×10^5 cells/ml and used immediately. The cells were incubated in the respective presence of 1 μM, 5 μM and 10 μM FITC-labeled peptides in OptiMEM medium for 3 hours at 37° C. Afterwards, the cells were washed in FACS buffer and incubated in proteinase K (0.02 mg/ml) containing buffer for 30 minutes at 37° C. The cells were washed twice and analyzed with the FACSCanto II (BD Biosciences; San Jose, Calif., USA) using the FITC channel.
For determining the internalization behavior of the CPPs identified in the screening procedures FITC-labeled derivates of said peptides (at 1 μM, 5 μM, and 10 μM, respectively) were analyzed by means of FACS. The following peptides were used: NRTN as a transfecting peptide, WNT16 as a non-transfecting peptide, FALL as a toxic peptide and TAT as a reference (positive control) (cf. FIG. 12). MCF7 cells were incubated in the presence of the fluorescent peptide derivatives for 3 hours at 37° C. in OptiMEM. Subsequently, the cells were treated with proteinase K for 30 minutes at 37° C. to remove surface bound peptides, and thus to ensure the monitoring only of internalized peptides. The cells were then washed in PBS and analyzed by FACS.

human Eg5 mRNA = assay: peptide-mediated transfection of siRNA targeting Eg5 (mRNA level, CytoTox-Glo apoptosis); format: cell-based
Description: The siRNA sequence specificity of NRTN was investigated via analysis of the peptide's ability to transfect a siRNA duplex targeting human Eg5 mRNA. The Eg5 knockdown dependent induction of apoptosis was determined by performing a CytoTox-Glo cytotoxicity assay (Promega Inc.). The mRNA values obtained at 1 μM were set to 100% to show dose dependent effects. Induction of apoptosis is expressed as percent of medium control. Aha1 siRNA is shown as black filled squares; luciferase siRNA is shown as non-filled circles.
Then, the cells were treated with a luminogenic peptide substrate in order to measure dead-cell protease activity, which is released from cells that have lost membrane integrity. […] The luminescence of this assay therefore represents dead cells. The 96 well plates were then analyzed in an InfiniteF200 luminescence reader.
An effective reduction of cellular Eg5 mRNA levels was found at concentrations of <10 μM. […] It is known that effective depletion of Eg5 mRNA causes mitotic arrest resulting in the onset of apoptosis (Blangy, A. et al. (1995), supra). […] Transfections with control siRNA under identical conditions were not cytotoxic either, thus confirming that the apoptotic phenotype was caused by Eg5 mRNA depletion.

MCF7 cells [2] = system: MCF7 cells
Description: MCF7 cells were seeded at a density of 15.000 cells per well in 96 well plates. The cells were incubated for 24 hours at 37° C., 5% CO2 and 85% humidity in RPMI 1640 medium supplemented with 10% FCS (fetal calf serum) and L-glutamine. For functional assays, the cells were washed in OptiMEM medium and RPMI 1640 was replaced with OptiMEM (all reagents were purchased from Invitrogen Corporation, Carlsbad, Calif., USA). Complexes of siRNAs and peptides were formed by incubation of 100 nM siRNA with the indicated peptide concentrations in OptiMEM for 30 minutes at room temperature. The complexes were added to the cells and incubated for 3 hours. Subsequently, OptiMEM was replaced with normal RPMI 1640 growth medium. The cells were incubated for further 21 hours for generating bDNA lysates, and for further 45 hours for performing CellTiter-Glo or CytoTox-Glo assays (cf. below).
In order to measure the number of living cells the CellTiter-Glo Luminescent Cell Viability Assay (Promega Corporation, Madison, Wis., USA) was used according to the protocol of the manufacturer. The cells were incubated for 48 hours in the presence of peptides and siRNAs. Subsequently, the cells are lysed, and a luminescent signal proportional to the amount of ATP present is generated which, in turn, is proportional to the number of living cells present. Luminescence was analyzed in an InfiniteF200 luminescence reader.
Based on this observation, GAPDH mRNA levels were used as a general readout for toxicity: an average measurement of 100% GAPDH mRNA relative to the medium control was considered as non-toxic, values between 99% and 70% as moderate toxic, and values of less than 70% as toxic (cf. FIG. 3).
Similarly, peptides resulting in GAPDH mRNA values >70% were classified as “nontoxic”, whereas peptides that caused a reduction of GAPDH mRNA to lesser values were termed “toxic”.

human Aha1 mRNA = assay: siRNA transfection screening (siAha1 vs siGL3 control, bDNA assay of Aha1/GAPDH mRNA); format: cell-based
Description: For the quantification of cellular mRNA levels bDNA (branched DNA) assays were performed which enable the detection of individual mRNA levels. To this end, a defined number of the cells to be analyzed was seeded into 96-well plates and allowed to attach over night. On the next day, the cells were transfected with siRNA.
After further 24 hours, the mRNA species were quantified using the QuantiGene Plex 2.0 assay kit according to the manufacturers instructions (Affymetrix Inc., Santa Clara, Calif., USA). In brief, cell lysates were transferred to a capture plate in the presence of a gene-specific probe set and incubated at 53° C. over night. After washing, the wells were sequentially incubated at 53° C. with an amplifier agent and an alkaline phosphatase (AP)-linked label probe with a washing step in between. Subsequently, the luminescent AP substrate dioxitane was added and incubated for 30 min at 53° C. Luminescence was assayed using an InfiniteF200 luminescence reader (Tecan Austria GmbH, Groding, Austria).
In order to analyze the potential CPPs for their ability to transfect siRNA into mammalian cells an increasing peptide concentration (from 1 μM to 20 μM) was employed along with a constant siRNA concentration (100 nM). This range of peptide concentrations was used as it had been shown that positively charged peptides such as TAT are internalized into cells in ranges up to 10 μM and remain in intracellular membrane compartments without significant egress into the cytosol (Duchardt, F. et al. (2007) Traffic 8, 848-866). […] A concentration of 10 nM siRNA is in the saturation range as determined in control experiments using the DharmaFECT transfection reagent (Dharmacon, Inc., Lafayette, Colo., USA; data not shown).
The siRNA oligonucleotides employed were directed against human Aha1 mRNA (Panaretou, B. et al. (2002) Mol. Cell 10, 1307-1318) or against luciferase mRNA as a control.
Complexes of siRNA and the respective peptides were formed in OptiMEM medium and incubated for 15 minutes at room temperature. The cells were incubated in the presence of the complexes for three hours in OptiMEM. After washing, the cells were incubated for further 21 or 45 hours in normal growth medium. Thereafter, the levels of Aha1 mRNA and a reference mRNA (i.e. GAPDH mRNA) were measured by means of a bDNA assay. These assays were performed with cells that were transfected with siAHA1 and with a control siRNA (siGL3, luciferase), respectively.
As a measure for specific RNAi, the reduction of Aha1 mRNA levels relative to GAPDH mRNA levels was compared in siAHA1-transfected cells and siGL3-transfected cells. Specific siRNA mediated transfection causes a reduction in Aha1/GAPDH mRNA values in siAhA1-compared to siGL3-transfected cells. FIG. 3 depicts the screening readout of these assays: the Aha1/GAPDH mRNA values of non-transfected control cells were set to 100% (for each assay), and the Aha1/GAPDH mRNA values of siAha1- or siGL3-transfected cells were expressed relative to that. For this normalized data set, the differences between the respective Aha1/GAPDH mRNA levels of siAha1- and siGL3-transfected cells were determined. Specific peptides caused a significant reduction in siAha1 transfection without reducing siGL3 transfections, which results in positive difference values. The more pronounced these values are, the more specific RNAi is observed (cf. FIG. 3).

Sequence: GAAEAAARVYDLGLRRLRQRRRLRRERVRA (NRTN peptide sequence; listed as Homo sapiens) [peptide derived from human neurturin]
- internalization into cells (FACS, FITC channel) (MCF7 cells [1]; FITC-labeled peptide 1, 5, 10 μM, 3 hours at 37° C., proteinase K treated): internalized into MCF7 cells
- change of internalization with concentration (MCF7 cells [1]; increasing the concentration from 5 μM to 10 μM): strong increase in internalization
- apoptotic phenotype upon siEg5 transfection (human Eg5 mRNA; CytoTox-Glo): an apoptotic phenotype was observed
- peptide concentration giving effective reduction of cellular Eg5 mRNA levels (human Eg5 mRNA; siRNA targeting Eg5): < 10 µM
- peptide concentration at which cell growth/viability was affected (MCF7 cells [2]): above 10 μM
- siRNA transfection activity (specific Aha1 mRNA reduction relative to GAPDH mRNA) (human Aha1 mRNA; MCF7 cells, 100 nM siRNA, peptide 1 μM to 20 μM): even more effective reduction of Aha1 mRNA levels
- transfection efficacy compared with TAT / control peptides (human Aha1 mRNA; NRTN: at lower non-toxic concentrations): higher than that of all (positive) control peptides analyzed; also recorded: efficacy even higher than TAT

From patent publication US9303076B2, “Cell-penetrating peptides and uses thereof” (Hoffmann-La Roche Inc., priority 2010, dated 2016)
